Reference: US20080076166A1, “Method For Producing Polyunsaturated Fatty Acids In Transgenic Organisms” (priority 2004, published 2008)
Like-named read-outs stand apart in the source and are kept apart here.

What was measured:
[1] = tested on: desaturase OtDes6.1 (Δ6-desaturase); type: cell-based, Ostreococcus tauri; settings: for Activity in %: yeast transformed with pYES2-OtDes6.1, conversion rate [substrate/(substrate+product)*100], mean (n=3)
Excerpt: (§1) The Saccharomyces cerevisiae strain 334 was transformed with the vector pYES2.1-OtD6.1 by electroporation (1500 V). A yeast which was transformed with the blank vector pYES2 was used as control. The transformed yeasts were selected on complete minimal dropout uracil medium (CMdum) agar plates supplemented with 2% glucose. After the selection, in each case three transformants were selected for the further functional expression.
(§2) To express the OtD6.1 desaturase, precultures consisting of in each case 5 ml of CMdum dropout uracil liquid medium supplemented with 2% (w/v) raffinose were initially inoculated with the selected transformants and incubated for 2 days at 30° C. and 200 rpm. Then, 5 ml of CMdum (dropout uracil) liquid medium supplemented with 2% raffinose and 300 μM various fatty acids were inoculated with the precultures to an OD600 of 0.05. Expression was induced by the addition of 2% (w/v) galactose. The cultures were incubated for a further 96 hours at 20° C.
The yeast cells from the main cultures were harvested by centrifugation (100×g, 5 min, 20° C.) and washed with 100 mM NaHCO3, pH 8.0 to remove residual medium and fatty acids. The yeast cell sediments were extracted for 4 hours using chloroform/methanol (1:1). The resulting organic phase was extracted with 0.45% NaCl, dried with Na2SO4 and evaporated in vacuo. Applying thin-layer chromatography (horizontal tank, chloroform:methanol:acetic acid 65:35:8), the lipid extract was separated further into the lipid classes phosphatidylcholine (PC), phosphatidylinosotol (PI), phosphatidylserine (PS), phsophatidylethanolamine (PE) and neutral lipids (NL). The various separated spots on the thin-layer plate were scraped off. For the gas-chromatographic analysis, fatty acid methyl esters (FAMEs) were prepared by acid methanolysis. To this end, the cell sediments were incubated for one hour at 80° C. together with 2 ml of 1 N methanolic sulfuric acid and 2% (v/v) dimethoxypropane. The FAMEs were extracted twice with petroleum ether (PE). To remove nonderivatized fatty acids, the organic phases were washed in each case once with 2 ml of 100 mM NaHCO3, pH 8.0 and 2 ml of distilled water. Thereafter, the PE phases were dried with Na2SO4, evaporated under argon and taken up in 100 μl of PE. The samples were separated on a DB-23 capillary column (30 m, 0.25 mm, 0.25 μm, Agilent) in a Hewlett-Packard 6850 gas chromatograph equipped with flame ionization detector. The conditions for the GLC analysis were as follows: the oven temperature was programmed from 50° C. to 250° C. with a 5° C./min increment and finally 10 min at 250° C. (holding).
The signals were identified by comparing the retention times with corresponding fatty acid standards (Sigma). The methodology is described for example in Napier and Michaelson, 2001, Lipids. 36(8):761-766; Sayanova et al., 2001, Journal of Experimental Botany. 52(360):1581-1585, Sperling et al., 2001, Arch. Biochem. Biophys. 388(2):293-298 and Michaelson et al., 1998, FEBS Letters. 439(3):215-218.
The substrate specificity of OtDes6.1 was determined after expression and after feeding various fatty acids. The substrates fed can be detected in large amounts in all of the transgenic yeasts. […]
The yeasts which had been transformed with the vector pYES2-OtDes6.1 were grown in minimal medium in the presence of the stated fatty acids. […] Thereafter, the FAMEs were analyzed via GLC. […] The activity corresponds to the conversion rate calculated using the formula [[…]].

[2] = tested on: elongase OtElo2 (Δ6-elongase); type: cell-based, Ostreococcus tauri
Excerpt: as §1, with “pOTE1 or pOTE2, respectively,” for “pYES2.1-OtD6.1”
as §2, with “express the Ot elongases, precultures consisting” for “express the OtD6.1 desaturase, precultures consisting”, “20° C. […]” for “20° C.”
The substrate specificity of OtElo2 (SEQ ID NO: 1) was determined after expression and after feeding various fatty acids (Tab. 3). The substrates fed can be detected in large amounts in all of the transgenic yeasts. […]
The yeasts which had been transformed with the vector pOTE2 were grown in minimal medium in the presence of the fatty acids stated. […] Thereafter, the FAMEs were analyzed by GLC. […]

[3] = tested on: OtD6 + PSE1 + PtD5; assay: Reconstitution of the PUFA biosynthesis in yeast, total fatty acids; type: cell-based; settings: to DHGLA and DHSTA, FIG. 5
Description: The yeast cells from the main cultures were harvested by centrifugation (100×g, 5 min, 20° C.) and washed with 100 mM NaHCO3, pH 8.0 to remove residual medium and fatty acids. The yeast cell sediments were extracted for 4 hours using chloroform/methanol (1:1). The resulting organic phase was extracted with 0.45% NaCl, dried with Na2SO4 and evaporated in vacuo. […] For the gas-chromatographic analysis, fatty acid methyl esters (FAMEs) were prepared by acid methanolysis. To this end, the cell sediments were incubated for one hour at 80° C. together with 2 ml of 1 N methanolic sulfuric acid and 2% (v/v) dimethoxypropane. The FAMEs were extracted twice with petroleum ether (PE). To remove nonderivatized fatty acids, the organic phases were washed in each case once with 2 ml of 100 mM NaHCO3, pH 8.0 and 2 ml of distilled water. Thereafter, the PE phases were dried with Na2SO4, evaporated under argon and taken up in 100 μl of PE. The samples were separated on a DB-23 capillary column (30 m, 0.25 mm, 0.25 μm, Agilent) in a Hewlett-Packard 6850 gas chromatograph equipped with flame ionization detector. The conditions for the GLC analysis were as follows: the oven temperature was programmed from 50° C. to 250° C. with a 5° C./min increment and finally 10 min at 250° C. […]
The parameters measured were the total fatty acids.

[4] = tested on: elongase OtElo1 (Δ5-elongase); type: cell-based, Ostreococcus tauri; settings: for Conversion rate (in %): yeast transformed with pOTE1, grown in presence of the fatty acid, FAMEs by GLC, mean (n=3) ± standard deviation
Excerpt: as §1, with “pOTE1 or pOTE2, respectively,” for “pYES2.1-OtD6.1”
as §2, with “Ot elongases,” for “OtD6.1 desaturase,”
The yeast cells from the main cultures were harvested by centrifugation (100×g, 5 min, 20° C.) and washed with 100 mM NaHCO3, pH 8.0 to remove residual medium and fatty acids. Starting with the yeast cell sediments, fatty acid methyl esters (FAMEs) were prepared by acid methanolysis. To this end, the cell sediments were incubated for one hour at 80° C. together with 2 ml of 1 N methanolic sulfuric acid and 2% (v/v) of dimethoxypropane. The FAMEs were extracted twice with petroleum ether (PE). To remove nonderivatized fatty acids, the organic phases were washed in each case once with 2 ml of 100 mM NaHCO3, pH 8.0 and 2 ml of distilled water. […]
The substrate specificity of OtElo1 was determined after expression and after feeding various fatty acids (Tab. 2). The substrates fed can be detected in large amounts in all of the transgenic yeasts. […]
The yeasts which had been transformed with the vector pOTE1 were grown in minimal medium in the presence of the fatty acids stated. […] Thereafter, the FAMEs were analyzed by GLC. […]

SMILES: CCCCCC/C=C\CCCCCCCC(=O)O [16:1^Δ9, palmitoleic acid]
- Activity of OtDes6.1, in words [1]: markedly less pronounced
- Activity in % [1]: 5.6%

SMILES: CCCCC/C=C\C/C=C\CCCCCCCC(=O)O [18:2^Δ9,12, linoleic acid]
- Activity of OtDes6.1, in words [1]: highest activities
- Activity in % [1]: 68.7%

SMILES: CCCCC/C=C\C/C=C\C/C=C\CCCCC(=O)O [18:3^Δ6,9,12, γ-linolenic acid]
- Conversion rate (in %) [2]: 15.3%
- Elongation of the OtDes6.1 reaction products in the presence of the Δ6-elongase PSE1 [3]: almost quantitatively

SMILES: CC/C=C\C/C=C\C/C=C\CCCCCCCC(=O)O [18:3^Δ9,12,15, linolenic acid]
- Activity in % [1]: 64.6%

SMILES: CC/C=C\C/C=C\C/C=C\C/C=C\CCCCC(=O)O [18:4^Δ6,9,12,15, stearidonic acid]
- Conversion rate (in %) ([2]; yeast transformed with pOTE2, grown in presence of the fatty acid, FAMEs by GLC, mean (n=3) ± standard deviation): 21.1%
- Elongation of the OtDes6.1 reaction products in the presence of the Δ6-elongase PSE1 [3]: almost quantitatively

SMILES: CCCCC/C=C\C/C=C\C/C=C\C/C=C\CCCC(=O)O [20:4^Δ5,8,11,14, arachidonic acid]
- Elongation by OtElo1, in words ([4]; Table 2, FIG. 2 and 3): capable of elongating
- Conversion rate (in %) [4]: 10.8 ± 0.6%

SMILES: CC/C=C\C/C=C\C/C=C\C/C=C\C/C=C\CCCC(=O)O [20:5^Δ5,8,11,14,17, eicosapentaenoic acid]
- Conversion rate (in %) [4]: 46.8 ± 3.6%
